# Experimental data taken from patent US9873709B2 (priority 2013, dated 2018).
# Test system: JAK1-dependent STAT6 phosphorylation downstream of IL-13 stimulation in TF-1 human erythroleukemia cells
# Assay: cells
# Conditions: TF-1, read-out: IL-13-pSTAT6 IC50
row,Structure (SMILES),IC50 [nM]
1,"CNC(=O)C1CN(C)CCN1C(=O)c1ccc(Nc2nc3c(C4=CCN(C(=O)CCC(F)(F)F)CC4)cccn3n2)cc1 (centres unmarked) [Example 2-276, N,4-dimethyl-1-[4-[[8-[1-(4,4,4-trifluorobutanoyl)-3,6-dihydro-2H-pyridin-4-yl]-[1,2,4]triazolo[1,5-a]pyridin-2-yl]amino]benzoyl] piperazine-2-carboxamide]",129
2,"CN1CCC(N(C)C(=O)c2ccc(Nc3nc4c(N5CCC(CC#N)(c6ccc(Cl)c(F)c6)CC5)cccn4n3)cc2)CC1 [Example 1-263, 4-[[8-[4-(4-chloro-3-fluoro-phenyl)-4-(cyanomethyl)-1-piperidyl]-[1,2,4]triazolo[1,5-a]pyridin-2-yl]amino]-N-methyl-N-(1-methyl-4-piperidyl)benzamide]",18.2
3,"CCOC(=O)N1CC=C(c2cccn3nc(Nc4ccc(C(=O)N5CC6(CNC6)C5)cc4)nc23)CC1 [Example 2-77, ethyl 4-[2-[4-(2,6-diazaspiro[3.3]heptane-2-carbonyl)anilino]-[1,2,4]triazolo[1,5-a]pyridin-8-yl]-3,6-dihydro-2H-pyridine-1-carboxylate]",134
4,"CNCCNC(=O)c1ccc(Nc2nc3c(C4=CCN(C(=O)CCC(F)(F)F)CC4)cccn3n2)cc1 [Example 2-31, N-[2-(methylamino)ethyl]-4-[[8-[1-(4,4,4-trifluorobutanoyl)-3,6-dihydro-2H-pyridin-4-yl]-[1,2,4]triazolo[1,5-a]pyridin-2-yl]amino]benzamide]",181
5,"CN(C)c1cc(CC2CCN(C(=O)c3ccc(Nc4nc5c(C6=CCN(C(=O)CCC(F)(F)F)CC6)cccn5n4)cc3)C2)ncn1 (centres unmarked) [Example 2-217, 1-[4-[2-[4-[3-[[6-(dimethylamino)pyrimidin-4-yl]methyl]pyrrolidine-1-carbonyl]anilino]-[1,2,4]triazolo[1,5-a]pyridin-8-yl]-3,6-dihydro-2H-pyridin-1-yl]-4,4,4-trifluoro-butan-1-one]",9.5
6,"O=C(c1ccc(Nc2nc3c(N4CCC(O)(c5ccc(Cl)cc5)CC4)cccn3n2)cc1)N1CCC2(CC1)CNCCO2 [Example 1-230, [4-[[8-[4-(4-chlorophenyl)-4-hydroxy-1-piperidyl]-[1,2,4]triazolo[1,5-a]pyridin-2-yl]amino]phenyl]-(1-oxa-4,9-diazaspiro[5.5]undecan-9-yl)methanone]",58.1
7,"CN1CCC(N(C)C(=O)c2ccc(Nc3nc4c(C5=CCN(C(=O)NCc6ccccc6)CC5)cccn4n3)cc2)CC1 [Example 2-222, N-benzyl-4-[2-[4-[methyl-(1-methyl-4-piperidyl)carbamoyl]anilino]-[1,2,4]triazolo[1,5-a]pyridin-8-yl]-3,6-dihydro-2H-pyridine-1-carboxamide]",468

# Further lines, results first:
row,IC50 [nM],Structure (SMILES)
1,34.7,"CN1CCC(N(C)C(=O)c2ccc(Nc3nc4c(C5=CCN(C(=O)C6CCCCC6)CC5)cccn4n3)cc2)CC1 [Example 2-348, 4-[[8-[1-(cyclohexanecarbonyl)-3,6-dihydro-2H-pyridin-4-yl]-[1,2,4]triazolo[1,5-a]pyridin-2-yl]amino]-N-methyl-N-(1-methyl-4-piperidyl)benzamide]"
2,174,"O=C(NCC1CCCCN1)c1ccc(Nc2nc3c(C4=CCN(C(=O)CCC(F)(F)F)CC4)cccn3n2)cc1 (centres unmarked) [Example 2-385, N-(2-piperidylmethyl)-4-[[8-[1-(4,4,4-trifluorobutanoyl)-3,6-dihydro-2H-pyridin-4-yl]-[1,2,4]triazolo[1,5-a]pyridin-2-yl]amino]benzamide]"
3,13.2,"O=C(CCC(F)(F)F)N1CC=C(c2cccn3nc(Nc4ccc(C(=O)N5CCC(Cc6ccccn6)CC5)cc4)nc23)CC1 [Example 2-404, 4,4,4-trifluoro-1-[4-[2-[4-[4-(2-pyridylmethyl)piperidine-1-carbonyl]anilino]-[1,2,4]triazolo[1,5-a]pyridin-8-yl]-3,6-dihydro-2H-pyridin-1-yl]butan-1-one]"
4,17.5,N[C@]12C[C@H]1CN(C(=O)c1ccc(Nc3nc4c(C5=CCN(C(=O)CCC(F)(F)F)CC5)cccn4n3)cc1)C2 [Example 2-323]
